Literature values, collected in patent US8007820B2, “Wide spectrum insecticide and miticide composition” (W. Neudorff GmbH KG, priority 2005, dated 2011).

Conditions: as formulated material

In the case of Spinosad, the shelf life is listed as “about three”.
